Experimental data as given in patent US4280993A, “Process for determining the concentration of benzodiazepines in a body fluid” (priority 1978, dated 1981).

What was measured:
[1] = test system: receptor powder (ox brain tissue), ^3 H-flunitrazepam binding; experiment: Displacement of 3H-flunitrazepam from freeze-dried ox brain receptor powder (lorazepam standard curve); settings: for Counts per minute: 50 μl added, bound 3H-flunitrazepam
Protocol: (a) A 25 mM solution of a sodium phosphate buffer, pH 7.0 (Solution I).
(b) A solution containing 18 ng and 5 μCi of ^3 H-flunitrazepam in 10 ml of 10% ethanol in Solution I (Solution II).
(c) About 0.3 g of a receptor powder, prepared as described below, suspended in 30 ml of Solution I (Suspension III).
(d) A standard solution (IV) containing 20 ng/ml of lorazepam, and prepared by dilution with the buffer I of 0.5 ml of 93% ethanolic solution (IVa) of lorazepam, containing 1 μg/ml of lorazepam, to a volume of 25 ml.
To 15 ml test tubes, each containing 400 μl of the receptor suspension III, are added 100 μl of Solution II and 50 μl of the sample, or 50 μl of the standard solution IV. The tubes are incubated at room temperature for at least 20 minutes and maximum 2 hours. Then, 10 ml of isothermic I are added, and the mixture is immediately filtered through a Whatman GF/C glassfibre filter and washed with 10 ml of isothermic buffer solution I.
The washed filter is placed in a scintillation vial, containing 5 ml of conventional scintillation fluid, and counted shortly after for 0.5 minute, or better the next day for 5 minutes.
For the preparation of a standard curve, a series of dilutions of the lorazepam standard solution (IV) is prepared by diluting with the buffer I, and assaying is performed in duplicate with 50 μl of each of these dilutions being added to the test tubes, each of which contains 400 μl of the suspension III and 100 μl of the solution II.
The average of counts co from the controls is 3187 from which is subtracted the average of the counts from the blanks, which is 160, to give co -cblank.
The count cx from each sample also has to be reduced by the average counts from the blanks, resulting from background radiation, to give cx -cblank.
In the accompanying drawing, the test results are plotted as co -cblank/cx -cblank versus the concentration of lorazepam, and the standard curve, therefore, can be used for quantitative determination of the benzodiazepine contents of samples.
The receptor powder used in the process described above was ox brain tissue which had been homogenized in 3 volumes of iced 1M sucrose solution whereafter the homogenate had been freeze-dried.

[2] = test system: dopamine receptor sites in mamalian brain; settings: cited from earlier work

| SMILES | c o - cblank / c x - cblank ([1]; drug 6.25 ng/ml) | Counts per minute ([1]; drug 6.25 ng/ml) [counts per minute] | c o - cblank / c x - cblank ([1]; drug 12.5 ng/ml) | Counts per minute ([1]; drug 12.5 ng/ml) [counts per minute] | c o - cblank / c x - cblank ([1]; drug 25 ng/ml) | Counts per minute ([1]; drug 25 ng/ml) [counts per minute] | c o - cblank / c x - cblank ([1]; drug 62.5 ng/ml) | Counts per minute ([1]; drug 62.5 ng/ml) [counts per minute] | c o - cblank / c x - cblank ([1]; drug 125 ng/ml) | Counts per minute ([1]; drug 125 ng/ml) [counts per minute] | c o - cblank / c x - cblank ([1]; drug 250 ng/ml) | binding to dopamine receptor sites [2] |
| --- | --- | --- | --- | --- | --- | --- | --- | --- | --- | --- | --- | --- |
| O=C1Nc2ccc(Cl)cc2C(c2ccccc2Cl)=NC1O (stereo not drawn) [lorazepam, 7-chloro-5-(2-chlorophenyl)-3-hydroxy-2,3-dihydro-1H-1,4-benzodiazepin-2-one] | 1.41 | 2313 | 1.73 | 1910 | 2.30 | 1477 | 3.86 | 944 | 6.87 | 601 | 12.51 | – |
| O=C(CCCN1CCC2(CC1)C(=O)NCN2c1ccccc1)c1ccc(F)cc1 [^3 H-spiroperidol] | – | – | – | – | – | – | – | – | – | – | – | bind selectively and with high affinity |
